Results on 3 molecules are retold here after patent publication US11684638B2, “Targeted delivery system, system components, and methods” (REGENTS OF THE UNIVERSITY OF MINNESOTA, priority 2016, dated 2023).

The subject of series [1] is MSCs. In words: MSC cell viability, MTS assay. The class given is cell-based, human. The procedure:
Cell viability was determined by MTS assay at 3 days, 5 days, and 7 days. After incubation for the designated time period, Ac4ManNAz-containing medium was exchanged with 500 μL of fresh growth medium and 100 μL of the MTS/PMS solution was added to each well. Cells were further incubated for one hour at 37° C. and soluble formazan produced by the live cells was measured at 490 nm using a microplate reader. Cells without Ac4ManNAz treatment were used as a control.

The test system of series [2] is MSCs.
Protocol: Various Ac4ManNAz concentrations were evaluated as follows. MSCs were seeded onto 96-well plate at a density of 1.5×10^3 cells/well in 150 μL of MSCM supplemented with 0, 1 μM, 5 μM, 10 μM, 20 μM, 50 μM, or 100 μM final concentration of Ac4ManNAz. After three days of incubation, the cells were washed twice with DPBS and treated with sulforhodamine B dibenzocyclooctyl (DBCO-sulforhodamine B) (20 μM final concentration) for one hour. Cells were rinsed five times with DPBS and images were taken using a fluorescence microscope. For quantitative analysis, cells treated with Ac4ManNAz were stained with DBCO-carboxyrhodamine and the fluorescence intensity (λex: 485 and λem: 528 nm) was measured using plate reader (FLx800 microplate fluorescence reader, BioTek Instruments, Inc., Winooski, Vt., USA).
Similarly, various Ac4ManNAz incubation times were evaluated by culturing MSCs in 20 μM Ac4ManNAz for different incubation times. The cells were treated as before for microscopy or quantitation of available azide groups. The treatments were staggered to perform the final analysis at the same time to maintain the cell number at the time of analysis.
For series [3], the system named is subcutaneous A549-Luc tumors injected with MSC-Az or control MSC. The series can be described thus: In vivo click chemistry with intravenous DBCO-Cy5.5. Details: species or system athymic nude mice. As for the experimental part:
A549-Luc lung tumors were developed in athymic nude mice such that each animal has two tumors, one on each side of the abdomen. When the tumors reached about 100 mm^3, the animals received intratumoral injection (5×10^5 cells/100 μL) of control MSCs in one tumor and MSC-Az in the other tumor of the same animal. One hour following MSC injection, 5 μg of DBCO-Cy5.5 in 100 μL DPBS was injected intravenously per mice. DBCO-Cy5.5 binding to MSC-Az was monitored by imaging at different time intervals (0.5 hour, 1 hour, 5 hours, or 24 hours) using an IVIS Spectrum live animal imager (Xenogen Corp., Alameda, Calif.).

In series [4] the test system is orthotopic ovarian tumors. The series can be described thus: Antitumor efficacy of glycoengineered MSC pre-incubated with DBCO-functionalized paclitaxel nanoparticles (FIG. 10). The class given is in vivo, mice. To be noted: Kaplan-Meier; intraperitoneal; 2×10^6 MSC-Az; ABRAXANE at 40 mg/kg paclitaxel on day 0, 4, 8. The procedure: FIG. 10. Antitumor efficacy of glycoengineered MSC pre-incubated with DBCO-functionalized paclitaxel nanoparticles.
Saline-treated animals were used as […] control.

Series [5] deals with platinum-resistant C200 ovarian cancer cells. In words: Cytotoxicity in co-culture […] assay (FIG. 11). It counts as cell-based. As for the experimental part: FIG. 11. IC50 of glycoengineered MSCs in platinum-resistant C200 ovarian cancer cells in co-culture using […] assay (Corning, Inc., Tewksbury, Mass.). The cytotoxic potential of glycoengineered MSCs was determined by co-culturing with C200 cells using a […] assay at 72 hours. For cytotoxicity assessment, C200 cells (20,000/well) were seeded in lower chamber of 24 well […] plate with different concentrations of glycoengineered MSCs in upper chamber. […] However, when incubated at 1:1 ratio of C200 to glycoengineered-MSCs, 75% cytotoxicity was observed.

On to `CC(=O)OC[C@H]1OC(OC(C)=O)[C@@H](NC(=O)CN=[N+]=[N-])[C@@H](OC(C)=O)[C@@H]1OC(C)=O` (some centres unmarked) [Ac4ManNAz, N-azidoacetylmannosamine-tetraacylated], for which the “cell viability of MSCs” value in the series on MSCs [1] (100 μM after five days of incubation) is “reduced”. For the same molecule, in the series with MSCs [1] (up to 50 μM for seven days), the “viability of MSCs” value is listed as “unaffected”. In addition, the “azide expression on MSC surface by fluorophore labeling” value in the series with MSCs [2] (20 μM in culture media) is given as “highest expression levels”. Further, the “surface coverage of azide groups” value in the series with MSCs [2] (three days of incubation) is on record as “highest surface coverage of azide groups”.
As to `CCN1/C(=C/C=C/C=C/C2=[N+](CCCCCC(=O)NCCC(=O)N3Cc4ccccc4C#Cc4ccccc43)c3ccc4c(S(=O)(=O)[O-])cc(S(=O)(=O)O)cc4c3C2(C)C)C(C)(C)c2c1ccc1c(S(=O)(=O)O)cc(S(=O)(=O)O)cc21` [DBCO-Cy5.5], the “MSC-Az associated fluorescence in tumor” value in series [3] (24 hours post injection) is reported as “found even at 24 hours”. The “fluorescent label in tumors” value in series [3] (one hour post intravenous dosing) is on record as “detected only in the tumors injected with MSC-Az”.
The IC50 is the concentration that gives 50% inhibition. As for `CC(=O)O[C@H]1C(=O)[C@@]2(C)[C@H]([C@H](OC(=O)c3ccccc3)[C@]3(O)C[C@H](OC(=O)[C@H](O)[C@@H](NC(=O)c4ccccc4)c4ccccc4)C(C)=C1C3(C)C)[C@]1(OC(C)=O)CO[C@@H]1C[C@@H]2O` [PTX solution, paclitaxel], in series [4], the median survival was 50 days. Besides, the half-maximal inhibitory concentration (IC50) in series [5] stood at 4.16 nM.
